Results taken from patent US20220305017A1, “COMPOSITIONS AND METHODS FOR THE TREATMENT OF ESTROGEN-DEPENDENT DISORDERS” (ObsEva S.A., priority 2019, published 2022).

System: human female patients diagnosed as having adenomyosis
Test: human clinical trial in adenomyosis (single-patient longitudinal case study and multi-patient analysis, n = 6)
Assay type: in vivo
Conditions: single patient
Description: This examples describes the results of a human clinical trial conducted to evaluate the ability of a GnRH antagonist, 3-[2-fluoro-5-(2,3-difluoro-6-methoxybenzyloxy)4-methoxyphenyl]-2,4-dioxo-1,2,3,4-tetrahydrothieno [3,4d]pyrimidine-5-carboxylic acid (represented by formula (VI)), or a pharmaceutically acceptable salt thereof, to treat adenomyosis, an estrogen-dependent disease, in human patients diagnosed as having this condition.
One aim of this study was to investigate the ability of the GnRH antagonist to maintain its therapeutic effects despite being administered to patients in a progressively lower dosage throughout the trial. To this end, the patients treated in this study was first administered the GnRH antagonist of formula (VI) in an amount of 200 mg/day during an initial 12-week period. The GnRH antagonist was then administered to the patients in a reduced amount of 100 mg/day during a subsequent 12-week period. The patients' responsiveness to the GnRH antagonist was monitored throughout the study.
In addition to assessing the effectiveness of the GnRH antagonist when administered at lower doses, another aim of this study was to evaluate the ability of the GnRH antagonist to sustain its therapeutic effects even after treatment was ceased altogether. Accordingly, after being periodically administered the GnRH antagonist of formula (VI) over the course of 24 weeks, first in an amount of 200 mg/day and then in an amount of 100 mg/day, treatment with the GnRH antagonist was halted entirely. The patients were then monitored during a post-treatment follow-up period to analyze the extent to which the therapeutic effects of the compound were sustained.
To test the effects of compound (VI), a total of n=6 human female patients diagnosed as having adenomyosis were administered compound (VI) in accordance with the dosing schedule described above. One of these patients in particular was closely monitored beginning well before their treatment with compound (VI) was initiated. The specific results of this patient's therapy are described in the section entitled “Single-Patient Longitudinal Case Study,” below. The cumulative set of results for all 6 patients is reported in the section entitled “Multi-Patient Analysis,” below.
As part of the clinical trial, a case study was conducted in which a single patient of reproductive age having clinically diagnosed adenomyosis was monitored during the course of treatment with compound (VI). The patient was nulliparous. Two years before the study began, the patient presented with heavy menstrual bleeding, pelvic pain, and dysmenorrhea. […] Their gynecologist prescribed ulipristal acetate (UPA), a selective progesterone receptor modulator (SPRM), to be administered in an amount of 5 mg/day over the course of a treatment period lasting three months.
The patient was then recommended for treatment with the GnRH antagonist represented by formula (VI) herein. Accordingly, the patient was orally administered compound (VI) in an amount of 200 mg/day for three months. Following this initial three-month period, the patient was orally administered compound (VI) in a reduced amount of 100 mg/day for a subsequent three-period. During both treatment periods, compound (VI) was administered to the patient in the form of a choline salt.
The patient was recommended for once-daily treatment with the GnRH antagonist of formula (VI). Accordingly, the patient was administered the GnRH antagonist of formula (VI) in an amount of 200 mg/day during a first treatment period, which lasted three months. At the conclusion of the first treatment period, the patient began a second treatment period in which they were administered compound (VI) in a reduced amount of 100 mg/day for three months. During both treatment periods, compound (VI) was administered to the patient in the form of a choline salt. […]

bleeding during treatment (5 mg/day for three months): breakthrough bleeding and spotting
Compound: CC(=O)O[C@]1(C(C)=O)CC[C@H]2[C@@H]3CCC4=CC(=O)CCC4=C3[C@@H](c3ccc(N(C)C)cc3)C[C@@]21C [UPA, ulipristal acetate, reference compound]
symptoms of pelvic pain and dysmenorrhea (5 mg/day for three months, before compound (VI)): worsened | adenomyotic lesions by MRI (end of 5 mg/day three-month course, FIG. 4B): significantly increased quantity of adenomyotic lesions
